In general, EC50 refers to the midpoint of the concentration-response curve.

This passage reports EC50 results from US20240166652A1, “MODULATORS OF THE INTEGRATED STRESS PATHWAY” (Calico Life Sciences LLC, priority 2017, published 2024).

This test has as its system ATF4 luciferase reporter in HEK293T cells. Kind of test: ATF4-Luc assay (ATF4 luciferase reporter, tunicamycin-treated HEK293T cells). The class given is cell-based, human. The conditions noted are these: Homo sapiens, HEK-293T; HEK293T cells carrying the ATF4 luciferase reporter, 1 μg/mL tunicamycin, 7 hours.
Take `CCCC1CC2(NC(=O)COc3ccc(Cl)c(F)c3)CCC1(NC(=O)COc1ccc(Cl)c(F)c1)CC2` (stereo not drawn) [Compound 723, N,N′-(2-propylbicyclo[2.2.2]octane-1,4-diyl)bis[2-(4-chloro-3-fluorophenoxy)acetamide]]: the EC50 lay in the range of 10 to 50 nM.

With `O=C(COc1cc(F)c2cn[nH]c2c1)NC12CCC(NC(=O)COc3ccc(OC(F)(F)F)c(F)c3)(CC1)[C@@H](O)C2` [Compound 724], the EC50 was less than 10 nM.

Turning to `O=C(COc1cc(F)c2cn[nH]c2c1)NC12CCC(NC(=O)COc3ccc(Cl)cc3)(CC1)[C@@H](O)C2` [Compound 725, 2-(4-chlorophenoxy)-N-[(25)-4-{2-[(4-fluoro-1H-indazol-6-yl)oxy]acetamido}-2-hydroxybicyclo[2.2.2]octan-1-yl]acetamide], the 50% effective concentration (EC50) was less than 10 nM.

Turning to `O=C(COc1ccc2c(c1)OC(F)(F)O2)NC12CCC(NC(=O)COc3ccc(Cl)c(F)c3)(CC1)[C@@H](O)C2` [Compound 726, 2-(4-chloro-3-fluorophenoxy)-N-[(2S)-4-{2-[(2,2-difluoro-2H-1,3-benzodioxol-5-yl)oxy]acetamido}-2-hydroxybicyclo[2.2.2]octan-1-yl]acetamide], the EC50 was less than 10 nM.

`O=C(COc1cc(F)c2cn[nH]c2c1)NC12CCC(NC(=O)COc3ccc(Cl)c(F)c3)(CC1)[C@@H](O)C2` [Compound 727, 2-(4-chloro-3-fluorophenoxy)-N-[(2S)-4-{2-[(4-fluoro-1H-indazol-6-yl)oxy]acetamido}-2-hydroxybicyclo[2.2.2]octan-1-yl]acetamide]: the EC50 is less than 10 nM.

On to `O=C(COc1cc(F)c2cn[nH]c2c1)NC12CCC(NC(=O)COc3ccc(F)c(F)c3)(CC1)[C@@H](O)C2` [Compound 728, 2-(3,4-difluorophenoxy)-N-[(2S)-4-{2-[(4-fluoro-1H-indazol-6-yl)oxy]acetamido}-2-hydroxybicyclo[2.2.2]octan-1-yl]acetamide], for which the EC50 is less than 10 nM.

Regarding `O=C(CCOc1ccc(Cl)c(F)c1)NC12CCC(NC(=O)COc3ccc(Cl)cc3)(CC1)CC2` [Compound 729, 3-(4-chloro-3-fluorophenoxy)-N-{4-[2-(4-chlorophenoxy)acetamido]bicyclo[2.2.2]octan-1-yl}propanamide], the EC50 fell in the range of 50 to 250 nM.

For `O=C(CCOc1ccc(Cl)c(F)c1)NC12CC(NC(=O)COc3ccc(Cl)c(F)c3)(C1)C2` [Compound 730, 3-(4-chloro-3-fluorophenoxy)-N-{3-[2-(4-chloro-3-fluorophenoxy)acetamido]bicyclo[1.1.1]pentan-1-yl}propanamide], the EC50 was 10 to 50 nM.

Take `Cc1ccc(OCC(=O)NC23CCC(NC(=O)COc4ccc(F)cc4)(CC2)[C@@H](O)C3)cc1F` [Compound 731, 2-(3-fluoro-4-methylphenoxy)-N-{(3S)-4-[2-(4-fluorophenoxy)acetamido]-3-hydroxybicyclo[2.2.2]octan-1-yl}acetamide]: the EC50 was less than 10 nM.

In the case of `Cc1ccc(OCC(=O)NC23CCC(NC(=O)COc4ccc(Cl)cc4)(CC2)[C@@H](O)C3)cc1F` [Compound 732, 2-(4-chlorophenoxy)-N-{(2S)-4-[2-(3-fluoro-4-methylphenoxy)acetamido]-2-hydroxybicyclo[2.2.2]octan-1-yl}acetamide], the EC50 was less than 10 nM.

Consider `Cc1ccc(OCC(=O)NC23CCC(NC(=O)COc4ccc(OC(F)(F)F)c(F)c4)(CC2)[C@@H](O)C3)cc1F` [Compound 733, 2-(3-fluoro-4-methylphenoxy)-N-[(3S)-4-{2-[3-fluoro-4-(trifluoromethoxy)phenoxy]acetamido}-3-hydroxybicyclo[2.2.2]octan-1-yl]acetamide], for which the EC50 is less than 10 nM.

`Cc1ccc(OCC(=O)NC23CCC(NC(=O)COc4ccc(F)c(F)c4)(CC2)[C@@H](O)C3)cc1F` [Compound 734, 2-(3,4-difluorophenoxy)-N-{(2S)-4-[2-(3-fluoro-4-methylphenoxy)acetamido]-2-hydroxybicyclo[2.2.2]octan-1-yl}acetamide]: the EC50 is less than 10 nM.

For `Cc1ccc(OCC(=O)NC23CCC(NC(=O)COc4cc(F)c5cn[nH]c5c4)(CC2)[C@@H](O)C3)cc1F` [Compound 735], the EC50 was less than 10 nM.

With `Cc1ccc(OCC(=O)NC23CCC(NC(=O)COc4ccc(OC(F)(F)F)cc4)(CC2)[C@@H](O)C3)cc1F` [Compound 736, 2-(3-fluoro-4-methylphenoxy)-N-[(3S)-3-hydroxy-4-{2-[4-(trifluoromethoxy)phenoxy]acetamido}bicyclo[2.2.2]octan-1-yl]acetamide], the EC50 is less than 10 nM.

Turning to `Cc1ccc(OCC(=O)NC23CCC(NC(=O)COc4ccc(Cl)c(F)c4)(CC2)[C@@H](O)C3)cc1F` [Compound 737, 2-(4-chloro-3-fluorophenoxy)-N-{(2S)-4-[2-(3-fluoro-4-methylphenoxy)acetamido]-2-hydroxybicyclo[2.2.2]octan-1-yl}acetamide], the EC50 is less than 10 nM.

Turning to `O=C(COc1ccc(Cl)c(F)c1)NC12CCC(NC(=O)COc3cc(F)c4cn[nH]c4c3)(CC1)[C@@H](O)C2` [Compound 738, 2-(4-chloro-3-fluorophenoxy)-N-[(3S)-4-{2-[(4-fluoro-1H-indazol-6-yl)oxy]acetamido}-3-hydroxybicyclo[2.2.2]octan-1-yl]acetamide], the 50% effective concentration (EC50) was less than 10 nM.

In the case of `O=C(COc1ccc(Cl)cc1)NC12CCC(NC(=O)COc3cc(F)c4cn[nH]c4c3)(CC1)CC2` [Compound 739, 2-(4-chlorophenoxy)-N-(4-{2-[(4-fluoro-1H-indazol-6-yl)oxy]acetamido}bicyclo[2.2.2]octan-1-yl)acetamide], the EC50 was less than 10 nM.

For the compound `O=C(COc1ccc(Cl)cc1)NC12CCC(NC(=O)COc3ccc(F)c(F)c3)(CC1)CC2` [Compound 740, 2-(4-chlorophenoxy)-N-{4-[2-(3,4-difluorophenoxy)acetamido]bicyclo[2.2.2]octan-1-yl}acetamide], the EC50 was in the range of 10 to 50 nM.

Take `O=C(COc1ccc(Cl)cc1)NC12CCC(NC(=O)COc3ccc(OC(F)(F)F)c(F)c3)(CC1)CC2` [Compound 741, 2-(4-chlorophenoxy)-N-(4-{2-[3-fluoro-4-(trifluoromethoxy)phenoxy]acetamido}bicyclo[2.2.2]octan-1-yl)acetamide]: the EC50 fell in the range of 10 to 50 nM.

As to `O=C(COc1ccc(Cl)cc1)NC12CCC(NC(=O)COc3ccc4c(c3)OC(F)(F)O4)(CC1)CC2` [Compound 742, 2-(4-chlorophenoxy)-N-(4-{2-[(2,2-difluoro-2H-1,3-benzodioxol-5-yl)oxy]acetamido}bicyclo[2.2.2]octan-1-yl)acetamide], the EC50 was less than 10 nM.

Take `O=C(COc1ccc(Cl)cc1)NC12CCC(NC(=O)COc3ccc(F)c(Cl)c3)(CC1)CC2` [Compound 743, 2-(3-chloro-4-fluorophenoxy)-N-{4-[2-(4-chlorophenoxy)acetamido]bicyclo[2.2.2]octan-1-yl}acetamide]: the EC50 was less than 10 nM.

Take `O=C(COc1ccc(Cl)cc1)NC12CCC(NC(=O)COc3ccc(Cl)cc3)(CC1)CC2` [Compound 744, N,N′-(bicyclo[2.2.2]octane-1,4-diyl)bis[2-(4-chlorophenoxy)acetamide]]: the EC50 was less than 10 nM.

Turning to `Cc1ccc(OCC(=O)NC23CCC(NC(=O)COc4ccc5c(C)n[nH]c5c4)(CC2)[C@@H](O)C3)cc1` [Compound 746, N-{(2S)-2-hydroxy-4-[2-(4-methylphenoxy)acetamido]bicyclo[2.2.2]octan-1-yl}-2-[(3-methyl-1H-indazol-6-yl)oxy]acetamide], the EC50 lay within 10 to 50 nM.

Consider `Cc1n[nH]c2cc(OCC(=O)NC34CCC(NC(=O)COc5ccc(OC(F)(F)F)c(F)c5)(CC3)C[C@@H]4O)ccc12` [Compound 747, 2-[3-fluoro-4-(trifluoromethoxy)phenoxy]-N-[(3S)-3-hydroxy-4-{2-[(3-methyl-1H-indazol-6-yl)oxy]acetamido}bicyclo[2.2.2]octan-1-yl]acetamide], for which the EC50 is 10 to 50 nM.

As to `O=C(COc1ccc(Cl)c(F)c1)NC12CCC(NC(=O)CNc3ccc(Cl)c(F)c3)(CC1)[C@@H](O)C2` [Compound 748, 2-(4-chloro-3-fluoroanilino)-N-{(2S)-4-[2-(4-chloro-3-fluorophenoxy)acetamido]-2-hydroxybicyclo[2.2.2]octan-1-yl}acetamide], the EC50 lay in the range of 10 to 50 nM.

Regarding `Cc1n[nH]c2cc(OCC(=O)NC34CCC(NC(=O)COc5ccc(Cl)c(F)c5)(CC3)C[C@@H]4O)ccc12` [Compound 749, 2-(4-chloro-3-fluorophenoxy)-N-[(3S)-3-hydroxy-4-{2-[(3-methyl-1H-indazol-6-yl)oxy]acetamido}bicyclo[2.2.2]octan-1-yl]acetamide], the EC50 was less than 10 nM.

On to `O=C(COc1ccc(Cl)c(F)c1)NC12CCC(NC(=O)COc3ccc(OC(F)(F)F)c(F)c3)(CC1)[C@@H](O)C2` [Compound 750, 2-(4-chloro-3-fluorophenoxy)-N-[(3S)-4-{2-[3-fluoro-4-(trifluoromethoxy)phenoxy]acetamido}-3-hydroxybicyclo[2.2.2]octan-1-yl]acetamide], for which the EC50 was less than 10 nM.

With `CS(=O)(=O)c1cc(F)ccc1OCC(=O)NC12CCC(NC(=O)COc3ccc(Cl)c(F)c3)(CC1)[C@@H](O)C2` [Compound 751, 2-(4-chloro-3-fluorophenoxy)-N-[(2S)-4-{2-[4-fluoro-2-(methanesulfonyl)phenoxy]acetamido}-2-hydroxybicyclo[2.2.2]octan-1-yl]acetamide], the EC50 was greater than 2000 nM.

With `CN1C(=O)COc2c(OCC(=O)NC34CCC(NC(=O)COc5ccc(Cl)c(F)c5)(CC3)[C@@H](O)C4)cc(Cl)cc21` [Compound 752, 2-(4-chloro-3-fluorophenoxy)-N-[(2S)-4-{2-[(6-chloro-4-methyl-3-oxo-3,4-dihydro-2H-1,4-benzoxazin-8-yl)oxy]acetamido}-2-hydroxybicyclo[2.2.2]octan-1-yl]acetamide], the EC50 lay in the range of 500 to 2000 nM.

Regarding `Cc1ccnc(OCC(=O)NC23CCC(NC(=O)COc4ccc(Cl)c(F)c4)(CC2)C[C@@H]3O)n1` [Compound 753, 2-(4-chloro-3-fluorophenoxy)-N-[(3S)-3-hydroxy-4-{2-[(4-methylpyrimidin-2-yl)oxy]acetamido}bicyclo[2.2.2]octan-1-yl]acetamide], the EC50 was in the range of 250 to 500 nM.
